The values below come from patent US10435400B2, “2,4-disubstituted phenylene-1,5-diamine derivatives and applications thereof, and pharmaceutical compositions and pharmaceutically acceptable compositions prepared therefrom” (SHANGHAI HAIYAN PHARMACEUTICAL TECHNOLOGY CO., LTD., priority 2014, dated 2019).

In test [1] the test system is A431 cells. Description: Cytostatic activity by MTT method, A431 cells.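 Note: viability read by MTT reduction after compound exposure, with MTT incubated for a further 4 h at 37 °C under 5% CO2 in 96-well plates.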 The settings on record: read-out: A431 cells (IC50/nM). On the technique in general: Tetrazolium dyes change colour on reduction, which living cells bring about.
Experimental: (§1) After rinsed for one time, 1.5 ml trypsin/EDTA was added to digest the adherent cells until the cells detached, and then 3.5 ml of medium was added to terminate the trypsinization. The digested cell suspension was transferred to a 15 ml falcon tube, and spun at 1300 rpm for 3 min, the supernatant was discarded, and cells were suspended in fresh medium.
(§2) The cells were added into the incubator after addition of the test compound, and incubated for 72 h, 10 μl of 5 mg/ml MTT (Sigma, M5655) solution was added to each well of the plate, and incubated the 96-well plates at 37° C. 5% CO2 for 4 h in a incubator.
(§3) The plates were spun at 2000 rpm for 5 min.
In the next test the target is EGFR WT kinase (Homo sapiens (Human), UniProt P00533). Description: Wild type EGFR kinase inhibition test (z-lyte). The settings on record: 10 μM ATP. Type of test: biochemical.
The subject of test [2] is H1975 cells. In words: Cytostatic activity by MTT method, H1975 cells. The test is classed as cell-based. Particulars: MTT; for IC50: 72 h, read-out: H1975 cells (IC50/nM); for selective inhibitory activity against the cell growth [IC50 (A431 cells)/IC50 (H1975 cells)]: ratio of IC50 values.
Experimental: MTT assay used the method well known to those skilled in the art, and the reagents used in the method can be commercially obtained. […] After rinsed for one time, 1.5 ml trypsin/EDTA was added to digest the adherent cells until the cells detached, and then 3.5 ml of medium was added to terminate the trypsinization. The digested cell suspension was transferred to a 15 ml falcon tube, and spun at 1300 rpm for 3 min, the supernatant was discarded, and cells were suspended in fresh medium. […] The plates were spun at 2000 rpm for 5 min.
Test [3] relates to H1975 cells. Description: ELISA screening EGFR T790M inhibitor for cell activity, H1975 cells. Particulars: ELISA; for Selective inhibitory activities of target on cellular level [IC50 (A431 cells)/IC50 (H1975 cells)]: ratio of IC50 values; for IC50: compound 1 h, read-out: H1975 cells (IC50/nM). The test is classed as cell-based. (In an ELISA, binding on a coated surface is turned into a signal by an enzyme label.)
Experimental: The reagents, preparation methods of the solution, as well as the procedures of cell treatments and preparation of lysate, and the test steps of ELISA in the following method were conducted according to the instructions of R&D DYC3570, R&D DYC1095E and R&D DYC1095BE.
Cell lysates: cell lysis buffer+10 μg/ml Aprotinin (Sigma), 10 μg/ml Leupeptin (Sigma). All reagents were prepared when using.
(2) The test compounds were diluted according to the method in MTT assay, and 10 μl of diluted compound or DMSO was added to the corresponding plate well, and incubated at 37° C. with 5% CO2 for 1 h. The final concentration of DMSO was 0.5%. Cell culture system merely treated with DMSO was used as cell control.
(3) 100 μl cell lysate was added after aspirating the medium, sealed and placed in a refrigerator at −80° C. overnight. Cell lysis buffer used as blank control.
The assay was operated according to the instructions of R&D DYC1095E or R&D DYC1095BE.
(5) 40 μl of cell lysis buffer and 60 μl of cell lysates were added, and incubated at 25° C. for 2 h under shaking;
(7) Detection antibody was diluted according to a predetermined ratio as stipulated in kit instructions by using IC diluent, and 100 μl of the diluted Detection Antibody was added to each well, and incubated at 25° C. for 1 h under shaking in darkness;
(9) reagent A and reagent B of TMB substrate (R & D DY999) were mixed with 1:1, and 100 μl of substrate was added to each well, and incubated at 25° C. for 20 minutes under shaking in darkness;
(11) The OD450 values and OD570 values of the cell control, blank control and compound treatment were measured respectively by using microplate reader (Thermo Multiskan K3), and the corresponding OD570 values were subtracted from OD450 values of the same wells to get the ODcell, ODblank and ODcompound treatment respectively.
2.3 Data Analysis Inhibition ratio (%)=100%×(ODcell−ODcompound treatment)(ODcell−ODblank)

For test [4], the system named is A431 cells. In words: ELISA cell activity, EGF-stimulated A431 cells.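 Note: Serum-starved A431 cells pretreated with compound for 1 h, then stimulated with EGF for 45 min, lysates read by ELISA (OD450 minus OD570), EGF-only wells as control.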 The test is classed as cell-based. Particulars: ELISA, compound 1 h then EGF 45 minutes, read-out: A431 cells (IC50/nM).
For the next test, the system named is NIH3T3 cells. In words: Cytotoxicity by MTT method, NIH3T3 cells.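 Note: cells grown in 96-well plates with compound for 72 h, then given MTT for a further 4 h at 37 °C under 5% CO2.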 Type of test: cell-based. Particulars: cytotoxicity, MTT, 72 h, read-out: NIH3T3 cells MTT assay (IC50/nM).

SMILES strings stand for the structures. Read-outs that look alike come from different tables or passages of the source. A value given as a limit tells only on which side of the number the result lay.

Chain of EGFR WT kinase (P00533 25-1210): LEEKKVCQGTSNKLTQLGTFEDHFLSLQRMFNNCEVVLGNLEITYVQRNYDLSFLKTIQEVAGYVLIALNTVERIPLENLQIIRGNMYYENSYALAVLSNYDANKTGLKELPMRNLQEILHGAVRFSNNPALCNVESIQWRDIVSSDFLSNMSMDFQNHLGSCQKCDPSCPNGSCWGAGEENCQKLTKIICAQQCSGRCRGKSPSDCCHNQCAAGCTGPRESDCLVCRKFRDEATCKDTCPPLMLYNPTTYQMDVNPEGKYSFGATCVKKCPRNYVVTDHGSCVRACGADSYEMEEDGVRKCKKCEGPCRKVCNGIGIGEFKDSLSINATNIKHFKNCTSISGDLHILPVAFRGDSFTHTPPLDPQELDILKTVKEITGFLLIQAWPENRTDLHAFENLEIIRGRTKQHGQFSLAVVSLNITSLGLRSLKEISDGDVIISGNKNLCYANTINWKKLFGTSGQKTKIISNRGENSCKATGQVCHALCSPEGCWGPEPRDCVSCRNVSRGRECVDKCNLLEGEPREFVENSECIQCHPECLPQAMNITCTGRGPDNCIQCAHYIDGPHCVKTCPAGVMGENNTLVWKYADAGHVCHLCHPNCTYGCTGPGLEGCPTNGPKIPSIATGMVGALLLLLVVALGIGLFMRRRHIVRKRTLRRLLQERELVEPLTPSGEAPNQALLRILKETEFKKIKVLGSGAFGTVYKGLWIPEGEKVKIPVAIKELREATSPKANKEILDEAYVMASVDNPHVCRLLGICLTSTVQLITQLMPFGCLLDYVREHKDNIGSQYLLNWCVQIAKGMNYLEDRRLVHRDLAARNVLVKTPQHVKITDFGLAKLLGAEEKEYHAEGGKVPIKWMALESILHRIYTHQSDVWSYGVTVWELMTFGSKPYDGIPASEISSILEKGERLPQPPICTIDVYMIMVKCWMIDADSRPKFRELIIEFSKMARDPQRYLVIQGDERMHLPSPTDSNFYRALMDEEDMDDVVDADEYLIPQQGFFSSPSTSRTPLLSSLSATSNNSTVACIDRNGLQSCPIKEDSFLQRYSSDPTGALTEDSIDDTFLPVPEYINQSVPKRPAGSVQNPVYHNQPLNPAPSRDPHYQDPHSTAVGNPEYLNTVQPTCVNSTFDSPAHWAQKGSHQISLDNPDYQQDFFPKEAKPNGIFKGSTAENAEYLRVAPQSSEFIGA
Experimental for NIH3T3 cells: as §1, §2, §3

Turning to `C=CC(=O)Nc1cc(Nc2ncc(Cl)c(-c3ccn(C)c3)n2)c(OC)cc1N(C)CCN(C)C` [Compound Z-99, N-(5-(5-chloro-4-(1-methyl-1H-pyrrol-3-yl)pyrimidin-2-ylamino)-2-((2-(dimethylamino)ethyl)(methyl)amino)-4-methoxyphenyl)acrylamide], the IC50 in the test on A431 cells [1] (Homo sapiens, A-431, 72 h) is 1040 nM; against EGFR WT kinase, 38 nM; in the test on H1975 cells [2] (Homo sapiens, NCI-H1975), 40 nM; in the test with H1975 cells [3] (Homo sapiens, NCI-H1975), 57 nM; in the test on A431 cells [4] (Homo sapiens, A-431) it was 663 nM; with NIH3T3 cells (Mus musculus, NIH3T3), 5990 nM. Moreover, the “selective inhibitory activity against the cell growth [IC50 (A431 cells)/IC50 (H1975 cells)]” value (“selective inhibitory activity” below) in the test on H1975 cells [2] came out at 26. In addition, in the test with H1975 cells [3], the “Selective inhibitory activities of target on cellular level [IC50 (A431 cells)/IC50 (H1975 cells)]” value (shortened to “Selective inhibitory activities”) is on record as 11.6.
On to `C=CC(=O)Nc1cc(Nc2ncc(Cl)c(-c3c(C)nn(C)c3C)n2)c(OC)cc1N(C)CCN(C)C` [Compound Z-91, N-(5-(5-chloro-4-(1,3,5-trimethyl-1H-pyrazol-4-yl)pyrimidin-2-ylamino)-2-((2-(dimethylamino)ethyl)(methyl)amino)-4-methoxyphenyl)acrylamide], for which the IC50 with A431 cells [1] (Homo sapiens, A-431, 72 h) was 3610 nM; at EGFR WT kinase, 195 nM; with H1975 cells [2] (Homo sapiens, NCI-H1975) it was 36 nM; with H1975 cells [3] (Homo sapiens, NCI-H1975), 90 nM; in the test on A431 cells [4] (Homo sapiens, A-431), 3280 nM; in the test on NIH3T3 cells (Mus musculus, NIH3T3) it was above 10000 nM. Further, the “selective inhibitory activity” value in the test with H1975 cells [2] came out at 100.3. Moreover, the “Selective inhibitory activities” value in the test on H1975 cells [3] came to 36.4.
Turning to `C=CC(=O)Nc1cc(Nc2ncc(Cl)c(-c3cnc4c(cnn4C)c3)n2)c(OC)cc1N(C)CCN(C)C` [Compound Z-39], the IC50 in the test on A431 cells [1] (MTT, 72 h) came to 918 nM; against EGFR WT kinase, 33 nM; in the test on H1975 cells [2], 16 nM; in the test on H1975 cells [3] it was 41 nM; with A431 cells [4], 660 nM; with NIH3T3 cells, 8890 nM. In addition, the “selective inhibitory activity” value with H1975 cells [2] amounted to 57.4. Besides, the “Selective inhibitory activities” value in the test with H1975 cells [3] is 16.1.
`C=CC(=O)Nc1cc(Nc2nccc(-c3cnc4c(ccn4C)c3)n2)c(OC)cc1N(C)CCN(C)C` [Compound Z-16, N-(2-((2-(dimethylamino)ethyl)(methyl)amino)-4-methoxy-5-((4-(1-methyl-1H-pyrrolo[2,3-b]pyridin-5-yl)pyrimidin-2-yl)amino)phenyl)acrylamide]: the IC50 in the test with A431 cells [1] (Homo sapiens, A-431, 72 h) is 871 nM; against EGFR WT kinase it was 4 nM; in the test on H1975 cells [2] (Homo sapiens, NCI-H1975), 9 nM; with H1975 cells [3] (Homo sapiens, NCI-H1975) it was 10 nM; in the test with A431 cells [4] (Homo sapiens, A-431), 153 nM; in the test with NIH3T3 cells (Mus musculus, NIH3T3), above 10000 nM. In addition, the “selective inhibitory activity” value in the test on H1975 cells [2] was determined as 97. In the test with H1975 cells [3], the “Selective inhibitory activities” value was found to be 15.3.
Turning to `C=CC(=O)Nc1cc(Nc2nccc(-c3cnc4c(ccn4C)c3)n2)c(OC)cc1OCCN(C)C` [Compound Z-117], the IC50 was 1300 nM in the test on A431 cells [1] (MTT, 72 h); 8 nM on EGFR WT kinase; 19 nM in the test with H1975 cells [2]; 18 nM in the test on H1975 cells [3]; 164 nM with A431 cells [4]; above 10000 nM in the test with NIH3T3 cells. Besides, the “selective inhibitory activity” value with H1975 cells [2] was found to be 68.5. In the test on H1975 cells [3], the “Selective inhibitory activities” value was 9.1.
On to `C=CC(=O)Nc1cc(Nc2nccc(-c3cnc4c(ccn4C)c3)n2)c(OC)cc1N(C)CCN(C)C(C)C` [Compound Z-115], for which the IC50 is 2500 nM with A431 cells [1] (MTT, 72 h); 22 nM against EGFR WT kinase; 38 nM with H1975 cells [2]; 90 nM in the test on H1975 cells [3]; 469 nM in the test on A431 cells [4]; above 10000 nM in the test with NIH3T3 cells. Further, in the test with H1975 cells [2], the “selective inhibitory activity” value is reported as 66. Also, in the test with H1975 cells [3], the “Selective inhibitory activities” value stood at 5.2.
Turning to `C=CC(=O)Nc1cc(Nc2ncc(Cl)c(-c3cn(C)nc3C)n2)c(OC)cc1N1CCC(N(C)C)CC1` [Compound Z-95, N-(5-(5-chloro-4-(1,3-dimethyl-1H-pyrazol-4-yl)pyrimidin-2-ylamino)-2-(4-(dimethylamino)piperidin-1-yl)-4-methoxyphenyl)acrylamide], the IC50 with A431 cells [1] (Homo sapiens, A-431, 72 h) was 5450 nM; against EGFR WT kinase, 328 nM; in the test on H1975 cells [2] (Homo sapiens, NCI-H1975), 45 nM; in the test on H1975 cells [3] (Homo sapiens, NCI-H1975), 41 nM; in the test with A431 cells [4] (Homo sapiens, A-431), 4960 nM; in the test on NIH3T3 cells (Mus musculus, NIH3T3) it was above 10000 nM. Further, the “selective inhibitory activity” value in the test on H1975 cells [2] is listed as 121.1. The “Selective inhibitory activities” value in the test with H1975 cells [3] stood at 121.
For `C=CC(=O)Nc1cc(Nc2ncc(Cl)c(-c3cnc4c(ccn4C4CC4)c3)n2)c(OC)cc1N(C)CCN(C)C` [Compound Z-126], the IC50 in the test with A431 cells [1] (MTT, 72 h) was 495 nM; at EGFR WT kinase, 7 nM; with H1975 cells [2] it was 10 nM; with H1975 cells [3], 20 nM; in the test with A431 cells [4] it was 229 nM; in the test on NIH3T3 cells, 4910 nM. Also, the “selective inhibitory activity” value in the test with H1975 cells [2] was 49.5. In addition, the “Selective inhibitory activities” value in the test with H1975 cells [3] worked out at 11.5.
Consider `C=CC(=O)Nc1cc(Nc2ncc(Cl)c(-c3cn(C)nc3C)n2)c(OC)cc1N(C)CCN(C)C` [Compound Z-94, N-(5-(5-chloro-4-(1,3-dimethyl-1H-pyrazol-4-yl)pyrimidin-2-ylamino)-2-((2-(dimethylamino)ethyl)(methyl)amino)-4-methoxyphenyl)acrylamide], for which the IC50 was 645 nM with A431 cells [1] (Homo sapiens, A-431, 72 h); 20 nM against EGFR WT kinase; 8 nM in the test on H1975 cells [2] (Homo sapiens, NCI-H1975); 16 nM in the test with H1975 cells [3] (Homo sapiens, NCI-H1975); 372 nM in the test with A431 cells [4] (Homo sapiens, A-431); above 10000 nM with NIH3T3 cells (Mus musculus, NIH3T3). In the test with H1975 cells [2], the “selective inhibitory activity” value was 80.6. In addition, the “Selective inhibitory activities” value in the test with H1975 cells [3] is 23.3.
As for `C=CC(=O)Nc1cc(Nc2ncc(Cl)c(-c3cnn(C)c3)n2)c(OC)cc1N1CCN(C)CC1` [Compound Z-100, N-(5-(5-chloro-4-(1-methyl-1H-pyrazol-4-yl)pyrimidin-2-ylamino)-4-methoxy-2-(4-methylpiperazin-1-yl)phenyl)acrylamide], the IC50 is 1230 nM in the test with A431 cells [1] (Homo sapiens, A-431, 72 h); 297 nM at EGFR WT kinase; 24 nM with H1975 cells [2] (Homo sapiens, NCI-H1975); 24 nM in the test with H1975 cells [3] (Homo sapiens, NCI-H1975); 8430 nM in the test with A431 cells [4] (Homo sapiens, A-431); 3880 nM in the test on NIH3T3 cells (Mus musculus, NIH3T3). The “selective inhibitory activity” value in the test on H1975 cells [2] is reported as 51.1. The “Selective inhibitory activities” value with H1975 cells [3] stood at 351.2.
Consider `C=CC(=O)Nc1cc(Nc2ncc(Cl)c(-c3cnc4c(ccn4C(C)C)c3)n2)c(OC)cc1N(C)CCN(C)C` [Compound Z-125], for which the IC50 in the test with A431 cells [1] (MTT, 72 h) was 1320 nM; on EGFR WT kinase, 14 nM; in the test on H1975 cells [2], 13 nM; in the test on H1975 cells [3] it was 47 nM; with A431 cells [4], 291 nM; in the test with NIH3T3 cells, 4660 nM. Also, the “selective inhibitory activity” value in the test with H1975 cells [2] is given as 101.2. In the test on H1975 cells [3], the “Selective inhibitory activities” value is listed as 6.2.
In the case of `C=CC(=O)Nc1cc(Nc2nccc(-c3cnc4c(ccn4C)c3)n2)c(OC)cc1N1CC(N(C)C)C1` [Compound Z-27], the IC50 in the test with A431 cells [1] (MTT, 72 h) was 2480 nM; on EGFR WT kinase, 19 nM; in the test on H1975 cells [2], 49 nM; in the test with H1975 cells [3], 44 nM; in the test on A431 cells [4], 955 nM; in the test on NIH3T3 cells, 7960 nM. Further, the “selective inhibitory activity” value with H1975 cells [2] is given as 50.1. In addition, the “Selective inhibitory activities” value in the test with H1975 cells [3] came out at 21.7.
